{"source": "patent US20230220443A1", "about": "“CHARACTERIZATION OF S-ADENOSYL-L-METHIONINE-CONSUMING ENZYMES WITH 1-STEP EZ-MTASE: A UNIVERSAL COUPLED-ASSAY” (ALBERT EINSTEIN COLLEGE OF MEDICINE, priority 2017, published 2023)", "target": "T1, NcDIM-5 (Neurospora crassa, UniProt Q8X225)", "T1 construct": "GST; made in house", "T1 sequence (Q8X225 1-331)": "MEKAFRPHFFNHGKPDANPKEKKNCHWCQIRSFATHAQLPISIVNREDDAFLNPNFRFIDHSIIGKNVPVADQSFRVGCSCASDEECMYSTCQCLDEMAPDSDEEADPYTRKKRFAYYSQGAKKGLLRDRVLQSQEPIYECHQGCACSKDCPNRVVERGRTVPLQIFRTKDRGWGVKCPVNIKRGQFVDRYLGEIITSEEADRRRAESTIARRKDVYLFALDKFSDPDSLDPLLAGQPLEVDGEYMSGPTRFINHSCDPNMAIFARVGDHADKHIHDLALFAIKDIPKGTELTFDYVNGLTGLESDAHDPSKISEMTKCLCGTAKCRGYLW", "format": "biochemical", "method": "Kinetic behavior for peptide H3(1-53) against NcDIM-S(SAM sat.)—Experiments were conducted following matching CePRMT5 protocol above. Briefly, the 250-μL reaction mixtures from a same row contained 25 mM glycine buffer pH=9.50, 1 mM βME, 10% glycerol, 50 mM NaCl, 4 μM coupling deaminase TM0936, 7.6 nM NcDIM-5 and various peptide concentrations (0.51-12.68 μM; in the first well, peptide acceptor was omitted to account for background signal—natural decomposition of SAM). Reactions started upon addition of SAM (25.8 μM saturating final concentration) and absorbance was recorded. Initial rates were first corrected for background signal, then plotted against H3(1-53) concentrations. Fit to the Michaelis-Menten equation provided corresponding kinetic parameters.\nKinetic behavior for 8-aza-SAM against MTases (acceptor sat.)—Briefly, kinetic parameters were determined at 20° C. in a UV-Star 96-well flat bottom plate (Greiner Bio-One, #655801) by continuous monitoring of absorbance at 282 nm using a SpectraMax M5 instrument (Molecular Devices). As for SAM experiments, the measurements consisted of two experimental subsets: MTase reactions (both 8-aza-SAM and acceptor added) and MTase blanks (8-aza-SAM was added without acceptor to account for natural 8-aza-SAM decomposition). The 250-μL (60-μL) reaction mixtures from a same row contained 50 mM phosphate buffer pH=7.60 (7.80), 1 mM βME, 10% glycerol (5% glycerol, 100 μM MgCl2), 4 μM coupling deaminase TM0936, either 1.5 μM CePRMT5 or 402 nM TbPRMT7 (or 610 nM GsSDMT) and various 8-aza-SAM concentrations. […] Initial rates were first corrected for background signal, then plotted against 8-aza-SAM concentrations and fitted to the Michaelis-Menten equation to yield corresponding kinetic parameters.\nwhere [MTase] and [8-aza-SAM] are the total concentration of methyltransferase and methyl donor, respectively; Km is the Michaelis constant, Kf is the substrate inhibition constant and kcat is the turnover for 8-aza-SAM substrate.", "key": {"[1]": {"settings": "pH=9.50, 25 μM SAM, 7.6 nM NcDIM-5"}}, "note": "Entries after “also recorded” stand apart in the source; their conditions may differ.", "data": [{"smiles": "C[S+](CC[C@H](N)C(=O)O)C[C@H]1O[C@@H](n2nnc3c(N)ncnc32)[C@H](O)[C@@H]1O", "note": "(stereo partly drawn) [8-aza-SAM, S-8-aza-adenosyl-L-methionine]", "values": [{"measurement": "acceptance of cofactor analog as substrate", "result": "unable to accept; also recorded: unable to process"}, {"measurement": "Km", "setting": "[1]", "result": "NOT A"}, {"measurement": "kcat", "setting": "[1]", "result": "NOT A"}]}]}
